Results published in patent US20140163050A1, “Use of 1H-quinazoline-2,4-diones” (priority 2011, published 2014).
≈ marks a conversion by molar mass, not a printed value. Where “and” joins values, the source holds several entries; their conditions need not be identical. Equal entries are not always repeated. Entries after “also recorded” stand apart in the source; their conditions may differ. Where two headings read alike, the source gives them in different places.

Experiments:
[1] = C-7 plasma pharmacokinetics after single oral administration; format: in vivo, human
Procedure: The C-7 PK parameters were determined in plasma using non-compartmental methods using WinNonlin Pro (Version 5.2), as detailed in Table 3.
Biofluid concentrations were expressed in mass per volume units (ng/mL). All C-7 and AEDs concentrations below LLOQ were reported as zero in the concentration data listings. Concentrations below LLOQ were treated as zero in summary statistics of concentration data as well as for calculation of C-7 PK parameters. A geometric mean was not reported whenever at least one concentration was below the LLOQ (i.e. zero). Missing data were labeled as such and no imputation methods were used.
Terminal elimination rate constant (lambda_z) was calculated as the slope of the linear regression of the terminal phase of the logarithmic concentration-time profile for each individual dataset available. A minimum of three time points was used for determining lambda_z. Regression was performed without weighting, and a minimum value of 0.75 for Rsq_adjusted was necessary for acceptance.
The different areas under the concentration-time curve were calculated using the linear trapezoidal summation (both ascending and descending phase).
Descriptive statistics of pharmacokinetic parameters included mean, SD, and CV, minimum and maximum. The geometric mean was identified when presented. A range of values were presented for selected variables. Since Tmax is generally evaluated by a nonparametric method, median values and ranges were provided.
The patients received the study medication in the morning between 8:00 h and 9:00 h, at least 30 minutes after a light breakfast had been completed.

patients with PSE = assay: PK-PD relationship, Emax model for SPR; format: in vivo, human; conditions: for EC50: Homo sapiens, read-out: mean (SD) EC50; for EC50 / mean (SD) Emax on the logit scale: mean across the 13 patients; for EC50 (C-7 concentration at 50% of the maximum reduction in SPR) / Emax (maximum reduction in SPR on the logit scale): estimate for each patient (15, 50 or 100 mg)
Procedure: The mean SPR per eye condition and plasma PK concentrations of C-7 50, 100, and 15 mg dose groups is shown in FIG. 3, FIG. 4 and FIG. 5, respectively.
A PK-PD model was developed sequentially for the SPR data. Firstly a pharmacokinetic model was fitted using nonlinear mixed effects methodology in NONMEM version VI to describe the 13 patients with both PK and PD data. A 3 compartment disposition model with first order absorption and absorption lag time was selected to describe the pharmacokinetic time profile for each patient. The between patient variability was described by exponential random effects on each pharmacokinetic parameter, with all parameters assumed to be independent between individuals. The residual error model combined the additive and proportional error terms. The estimated pharmacokinetic parameters for each patient were used to generate each patient's PK profile as an input to the pharmacodynamic model.
For the Pharmacodynamic response, SPR, an Emax model was fitted on the logit transformed scale:
where Base is the baseline SPR on the logit scale, Emax is the maximum reduction in SPR on the logit scale, EC50 is the concentration at which the 50% of the maximum reduction is obtained and C is C-7 concentration. For each patient, the PD parameters for the three eye conditions, eyes closure, eyes closed and eyes open, were estimated separately but with a common additive residual variance on the logit scale. The PD parameter estimates were highly variable across the 13 patients, with the estimation having trouble identifying Emax and EC50 (see Table 6 below).

mouse = assay: Oral bioavailability: in vivo orally active (audiogenic mouse test and/or MES test)
Procedure: The oral bioavailability was tested using the audiogenic mouse test (Audiogenic seizures, R. L. Collins; Chapter 14, pages: 347-372. In: Experimental Models of Epilepsy; By: Pupura, Penry, Tower, Woodbury, Walter, Raven Press, New York, 1972. Standard Book Number: 0-911216-26-X) and/or the MES test.

[2] = PK of concomitant AEDs on co-administration of C-7; format: in vivo, human; conditions: C-7 on Day 2; AED PK profiles Day 1 vs Days 2 and 3
Procedure: Similar AEDs concentration-time profiles were observed on Days 1, 2 and 3 for each patient. Two of the patients in Cohort I were also enrolled in Cohort II. Their lamotrigine PK profiles were similar in the 2 treatment periods. These observations confirm stable pre-existing treatment for all the patients.
AED concentrations were listed and summarized; analysis of level of exposure of AED(s) taken by the patient was performed on an ad-hoc basis as it depended on specifics of the AED.

[3] = Cohort I, C-7 50 mg, individual patients
[4] = Cohort II, C-7 100 mg, individual patients
[5] = Cohort III, C-7 15 mg, individual patients
[6] = patients with PSE (after light breakfast) vs healthy volunteer study (fasted)

- AUC0-24 h [1, 4]: 17924 ng·h/mL and 13877 ng·h/mL
- Cmax [1, 4]: 3470 ng/mL and 2950 ng/mL
- Tmax [1, 4]: 2.88 h and 2.00 h
- AUC0-24 h [1, 5]: 2906 ng·h/mL and 3878 ng·h/mL
- Cmax [1, 5]: 634 ng/mL and 701 ng/mL
- Tmax [1, 5]: 4.00 h and 1.97 h
- AUC(0-t) ([1]; human, plasma, oral, 15 mg, Cohort III, C-7 15 mg, individual patients, read-out: AUC0-24 h): 4270 ng·h/mL
- Cmax ([1]; human, plasma, oral, 15 mg, Cohort III, C-7 15 mg, individual patients, read-out: Cmax): 581 ng/mL
- Cmax ([1]; human, plasma, oral, 50 mg, Cohort I, C-7 50 mg, individual patients, read-out: Cmax): 1530 ng/mL
- Tmax ([1]; human, plasma, oral, 50 mg, Cohort I, C-7 50 mg, individual patients, read-out: Tmax): 3 h
- AUC(0-t) ([1]; human, plasma, oral, 100 mg, Cohort II, C-7 100 mg, individual patients, read-out: AUC0-24 h): 21300 ng·h/mL
- Cmax ([1]; human, plasma, oral, 100 mg, Cohort II, C-7 100 mg, individual patients, read-out: Cmax): 3700 ng/mL
- Tmax ([1]; human, plasma, oral, 100 mg, Cohort II, C-7 100 mg, individual patients, read-out: Tmax): 3 h
- AUC(0-t) ([1]; human, plasma, po, 15 mg, plasma, single oral 15 mg, Cohort III, n = 3, geometric mean [% CV geo mean], read-out: AUC0-6 hr): 2130 ng·h/mL
- AUC(0-t) ([1]; human, plasma, po, 15 mg, plasma, single oral 15 mg, Cohort III, n = 3, geometric mean [% CV geo mean], read-out: AUC0-24 hr): 3640 ng·h/mL
- AUC(0-t) ([1]; human, plasma, po, 15 mg, plasma, single oral 15 mg, Cohort III, n = 3, geometric mean [% CV geo mean], read-out: AUClast): 3660 ng·h/mL
- Cmax ([1]; human, plasma, po, 15 mg, plasma, single oral 15 mg, Cohort III, n = 3, geometric mean [% CV geo mean], read-out: Cmax): 637 ng/mL
- Tmax ([1]; human, plasma, po, 15 mg, plasma, single oral 15 mg, Cohort III, n = 3, median (min-max), read-out: Tmax): 2.98 h
- AUC(0-t) ([1]; human, plasma, po, 50 mg, plasma, single oral 50 mg, Cohort I, n = 6, geometric mean [% CV geo mean], read-out: AUC0-6 hr): 6790 ng·h/mL
- AUC(0-t) ([1]; human, plasma, po, 50 mg, plasma, single oral 50 mg, Cohort I, n = 6, geometric mean [% CV geo mean], read-out: AUC0-24 hr): 10600 ng·h/mL
- AUC(0-t) ([1]; human, plasma, po, 50 mg, plasma, single oral 50 mg, Cohort I, n = 6, geometric mean [% CV geo mean], read-out: AUClast): 10700 ng·h/mL
- Cmax ([1]; human, plasma, po, 50 mg, plasma, single oral 50 mg, Cohort I, n = 6, geometric mean [% CV geo mean], read-out: Cmax): 1990 ng/mL
- Tmax ([1]; human, plasma, po, 50 mg, plasma, single oral 50 mg, Cohort I, n = 6, median (min-max), read-out: Tmax): 2.96 h
- AUC(0-t) ([1]; human, plasma, po, 100 mg, plasma, single oral 100 mg, Cohort II, n = 4, geometric mean [% CV geo mean], read-out: AUC0-6 hr): 10200 ng·h/mL
- AUC(0-t) ([1]; human, plasma, po, 100 mg, plasma, single oral 100 mg, Cohort II, n = 4, geometric mean [% CV geo mean], read-out: AUC0-24 hr): 16900 ng·h/mL
- AUC(0-t) ([1]; human, plasma, po, 100 mg, plasma, single oral 100 mg, Cohort II, n = 4, geometric mean [% CV geo mean], read-out: AUClast): 17000 ng·h/mL
- Cmax ([1]; human, plasma, po, 100 mg, plasma, single oral 100 mg, Cohort II, n = 4, geometric mean [% CV geo mean], read-out: Cmax): 2980 ng/mL
- Tmax ([1]; human, plasma, po, 100 mg, plasma, single oral 100 mg, Cohort II, n = 4, median (min-max), read-out: Tmax): 2.94 h
- mean AUClast in patients higher than in healthy male subjects [1, 6]: 10-40%
- mean Cmax in patients higher than in healthy male subjects [1, 6]: 10-20%
- Tlag ([1]; plasma, single oral 15 mg, Cohort III, n = 3, median (min-max)): 0.00 (0.00-0.00) hr
- Tlag ([1]; plasma, single oral 50 mg, Cohort I, n = 6, median (min-max)): 0.00 (0.00-0.00) hr
- Tlag ([1]; plasma, single oral 100 mg, Cohort II, n = 4, median (min-max)): 0.00 (0.00-0.00) hr
- earliest time C-7 measurable in plasma ([1]; single 15, 50 or 100 mg dose): 0.25 h post-dose
- time of peak plasma concentration (median) ([1]; single 15, 50 or 100 mg dose): around 3 h post-dose
- time of peak plasma concentration, maximum in individual patients ([1]; single 15, 50 or 100 mg dose): 4 h
- time of peak plasma concentration, minimum in individual patients ([1]; single 15, 50 or 100 mg dose): approximately 2 h
- EC50 (patients with PSE; eyes closed): 3.75 µg/mL (≈ 9.93 µM)
- EC50 (patients with PSE; eyes closures): 2.25 µg/mL (≈ 5.97 µM)
- EC50 (patients with PSE; eyes open): 2.96 µg/mL (≈ 7.85 µM)
Structure (SMILES): CC(C)c1cc2[nH]c(=O)n(NS(C)(=O)=O)c(=O)c2cc1-c1ccnn1C [Compound C-7, N-[7-Isopropyl-6-(2-methyl-2H-pyrazol-3-yl)-2,4-dioxo-1,4-dihydro-2H-quinazolin-3-yl]-methanesulfonamide]
- AUC0-24 h [1, 3]: 9838 ng·h/mL and 12564 ng·h/mL and 14162 ng·h/mL and 7043 ng·h/mL
- Cmax [1, 3]: 1910 ng/mL and 2140 ng/mL and 2800 ng/mL and 1410 ng/mL
- Tmax [1, 3]: 2.00 h and 2.92 h and 3.98 h and 3.87 h
- EC50 (C-7 concentration at 50% of the maximum reduction in SPR) (patients with PSE; eyes closed): 0.219 µg/mL and 0.005 µg/mL and 1.17 µg/mL and 0.31 µg/mL and 2.04 µg/mL and 0.229 µg/mL and 9.9 µg/mL and 2.08 µg/mL and 9.2 µg/mL
- Emax (maximum reduction in SPR on the logit scale) (patients with PSE; eyes closed): 0.963 and 2.54 and 1.79 and 2.47 and 6.99 and 0.58 and 0.05 and 30.9 and 49.5 (3×) and 0.487
- mean (SD) Emax on the logit scale (patients with PSE; eyes closed): 16.3 (21.7)
- EC50 (C-7 concentration at 50% of the maximum reduction in SPR) (patients with PSE; eyes closure): 1.69 µg/mL and 9.9 µg/mL and 0.32 µg/mL and 0.788 µg/mL and 1.27 µg/mL and 0.005 µg/mL and 0.01 µg/mL and 0.814 µg/mL and 1.41 µg/mL and 3.08 µg/mL and 0.0833 µg/mL
- Emax (maximum reduction in SPR on the logit scale) (patients with PSE; eyes closure): 2.38 and 41.5 and 0.571 and 49.5 (2×) and 3.25 and 2.39 and 0.05 (2×) and 9.23 and 1.31 and 7.67 and 0.495
- mean (SD) Emax on the logit scale (patients with PSE; eyes closures): 12.9 (19.6)
- EC50 (C-7 concentration at 50% of the maximum reduction in SPR) (patients with PSE; eyes open): 1.47 µg/mL and 9.9 µg/mL and 0.629 µg/mL and 0.131 µg/mL and 0.005 µg/mL and 0.137 µg/mL and 1.61 µg/mL and 1.88 µg/mL
- Emax (maximum reduction in SPR on the logit scale) (patients with PSE; eyes open): 1.14 and 40.8 and 1.03 and 49.5 (4×) and 14.5 and 1.29 and 0.05 (2×) and 2.66
- mean (SD) Emax on the logit scale (patients with PSE; eyes open): 21.6 (23.5)
- In vivo orally active (mouse): Yes
- effect of co-administration of C-7 on the AED PK [2]: did not seem to affect the AED PK; also recorded: did not seem to affect the PK of selected AEDs; also recorded: did not appear to affect the AED PK
